According to patent US20220135571A1, “THERAPEUTIC EGFR INHIBITORS” (Hoffmann-La Roche Inc., priority 2019, published 2022):
Structures can show the parent of a compound that is named as a salt.

Columns and labels:
[1] = target: T1, EGFR TMLR (T790M/L858R), H1975 cell line (Homo sapiens, UniProt P00533, L858R/T790M); assay: HTRF Phospho EGFR TMLR Assay (Cellular); type: cell-based; conditions: H1975 cells, 16 hours compound incubation
T1 construct: H1975 cell line (CRL-5908; Lot BA70803) was obtained from American Type Culture Collection; host or cells: H1975
Method: HTRF Phospho EGFR TMLR Assay (Cellular)
H1975 cell line (CRL-5908; Lot BA70803) was obtained from American Type Culture Collection (Manassas, Va., USA). Cells were maintained at 37° C., 5% CO2 in complete Media RPMI 1640 without phenol red containing 0.3 mg/ml glutamine, 100 IU/ml penicillin, and […] streptomycin (Gibco, 15140-122) supplemented with 10% fetal bovine serum (FBS, Gibco, 10091-148). Compounds were diluted into starving medium RPMI 1640 Media (Gibco, 11835-030) without phenol red containing 0.3 mg/ml glutamine, 100 IU/ml penicillin, and […] streptomycin (Gibco).
Cells were cultured for 24 h in a 384-well plate (Greiner Bio-One, Nr. 784-080; 5000 cells/well) using 8 μl of complete medium/well. Then 4 µl/well of the 3× compound solution, containing a factor 3 dilution series of the compound or DMSO in starving medium, were added to the cells (final DMSO 0.33%). After 16 hours at 37° C., 5% CO2, 95% rel. humidity cells were lysed by adding to the compound mix 4 µl/well of the supplemented lysis buffer (Cis-bio, Phospho-EGFR HTRF kit, 64EG1PEH), followed by incubation for 30 min at room temperature with shaking (400 rpm). Then 4 μl of a mixture of anti-Phospho-EGFR Cryptate and of anti-Phospho-EGFR-d2 antibody solutions prepared in the detection buffer was added. The plates were then incubated for 4 h at room temperature before reading the fluorescence emission at 620 and 665 nm using an Envision reader (Perkin Elmer).

[2] = target: T2, EGFR TMLRCS (T790M/L858R/C797S), BaF3-TMLRCS cell line (Homo sapiens, UniProt P00533, C797S/L858R/T790M); assay: HTRF Phospho EGFR TMLRCS Assay (Cellular); type: cell-based; conditions: BaF3-TMLRCS cells, 4 hours compound incubation
T2 construct: host or cells: BaF3
Method: HTRF Phospho EGFR TMLRCS Assay (Cellular)
BaF3-TMLRCS cell line were obtained from Crownbio (San Diego, Calif., USA). Cells were maintained at 37° C., 5% CO2 in RPMI ATCC (Gibco 31870)+2 mM Glutamine+0.5 μg/ml Puromycin supplemented with 10% fetal bovine serum (FBS) (Gibco).
Cells are transferred as above to Greiner Bio-One, Nr. 784-08 micro-titerplate at 20000 cells/well in 12.5 μl of growth medium/well after the plates had been pre-filled with 12.5 nl of DMSO solutions of the to be tested compounds (in dose response) or DMSO only. After spinning the plates at 300×g for 30 seconds the cells were incubated for 4 hours at 37 C, 5% CO2, 95% humidity. The cells were lysed by adding to the compound mix 4 µl/well of the supplemented lysis buffer (Cis-bio, Phospho-EGFR HTRF kit, 64EG1PEH), followed by incubation for 30 min at room temperature with shaking (400 rpm). The plates were then frozen and stored overnight at −80 C. On the next day and after thawing the plates, 4 μl of a mixture of anti-Phospho-EGFR Cryptate and of anti-Phospho-EGFR-d2 antibody solutions prepared in the supplied detection buffer was added to each well. The lidded plates were then incubated for 4 h at room temperature before reading the fluorescence emission at 616 and 665 nm using an Envision reader (Perkin Elmer). Data was analyzed in similar fashion as above using the normalized ratio of the 665 to 616 signals multiplied by 10000.

T1 sequence (P00533 25-1210 T790M/L858R): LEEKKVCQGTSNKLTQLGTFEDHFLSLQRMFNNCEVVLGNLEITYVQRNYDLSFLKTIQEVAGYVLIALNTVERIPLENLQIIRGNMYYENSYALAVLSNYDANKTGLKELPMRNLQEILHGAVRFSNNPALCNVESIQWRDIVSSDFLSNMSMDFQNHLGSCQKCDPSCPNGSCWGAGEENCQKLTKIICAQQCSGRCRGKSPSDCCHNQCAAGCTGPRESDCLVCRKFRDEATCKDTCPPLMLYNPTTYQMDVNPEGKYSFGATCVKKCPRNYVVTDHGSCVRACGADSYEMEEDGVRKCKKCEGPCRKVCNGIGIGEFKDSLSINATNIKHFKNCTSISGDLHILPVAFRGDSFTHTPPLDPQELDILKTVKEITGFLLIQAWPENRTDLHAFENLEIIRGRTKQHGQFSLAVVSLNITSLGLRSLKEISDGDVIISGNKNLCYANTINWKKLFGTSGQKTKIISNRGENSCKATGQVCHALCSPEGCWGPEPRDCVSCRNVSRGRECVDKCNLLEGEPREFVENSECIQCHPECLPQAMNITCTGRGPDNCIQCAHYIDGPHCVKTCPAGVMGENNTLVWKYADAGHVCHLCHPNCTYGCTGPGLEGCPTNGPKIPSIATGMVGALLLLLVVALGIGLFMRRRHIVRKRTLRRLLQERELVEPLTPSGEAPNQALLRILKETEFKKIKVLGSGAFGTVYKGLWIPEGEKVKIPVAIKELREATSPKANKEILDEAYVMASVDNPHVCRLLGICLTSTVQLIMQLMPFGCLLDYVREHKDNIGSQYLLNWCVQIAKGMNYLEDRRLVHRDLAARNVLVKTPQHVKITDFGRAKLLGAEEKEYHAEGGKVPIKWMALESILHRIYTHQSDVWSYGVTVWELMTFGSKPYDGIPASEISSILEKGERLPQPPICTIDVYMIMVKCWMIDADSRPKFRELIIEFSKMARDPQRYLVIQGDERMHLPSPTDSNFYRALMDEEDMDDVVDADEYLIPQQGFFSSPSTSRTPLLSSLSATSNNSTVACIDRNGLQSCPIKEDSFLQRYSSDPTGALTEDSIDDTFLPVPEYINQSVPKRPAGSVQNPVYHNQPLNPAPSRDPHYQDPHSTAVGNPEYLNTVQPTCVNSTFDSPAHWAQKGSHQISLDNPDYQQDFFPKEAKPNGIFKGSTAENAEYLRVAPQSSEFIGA
T2 sequence (P00533 25-1210 T790M/C797S/L858R): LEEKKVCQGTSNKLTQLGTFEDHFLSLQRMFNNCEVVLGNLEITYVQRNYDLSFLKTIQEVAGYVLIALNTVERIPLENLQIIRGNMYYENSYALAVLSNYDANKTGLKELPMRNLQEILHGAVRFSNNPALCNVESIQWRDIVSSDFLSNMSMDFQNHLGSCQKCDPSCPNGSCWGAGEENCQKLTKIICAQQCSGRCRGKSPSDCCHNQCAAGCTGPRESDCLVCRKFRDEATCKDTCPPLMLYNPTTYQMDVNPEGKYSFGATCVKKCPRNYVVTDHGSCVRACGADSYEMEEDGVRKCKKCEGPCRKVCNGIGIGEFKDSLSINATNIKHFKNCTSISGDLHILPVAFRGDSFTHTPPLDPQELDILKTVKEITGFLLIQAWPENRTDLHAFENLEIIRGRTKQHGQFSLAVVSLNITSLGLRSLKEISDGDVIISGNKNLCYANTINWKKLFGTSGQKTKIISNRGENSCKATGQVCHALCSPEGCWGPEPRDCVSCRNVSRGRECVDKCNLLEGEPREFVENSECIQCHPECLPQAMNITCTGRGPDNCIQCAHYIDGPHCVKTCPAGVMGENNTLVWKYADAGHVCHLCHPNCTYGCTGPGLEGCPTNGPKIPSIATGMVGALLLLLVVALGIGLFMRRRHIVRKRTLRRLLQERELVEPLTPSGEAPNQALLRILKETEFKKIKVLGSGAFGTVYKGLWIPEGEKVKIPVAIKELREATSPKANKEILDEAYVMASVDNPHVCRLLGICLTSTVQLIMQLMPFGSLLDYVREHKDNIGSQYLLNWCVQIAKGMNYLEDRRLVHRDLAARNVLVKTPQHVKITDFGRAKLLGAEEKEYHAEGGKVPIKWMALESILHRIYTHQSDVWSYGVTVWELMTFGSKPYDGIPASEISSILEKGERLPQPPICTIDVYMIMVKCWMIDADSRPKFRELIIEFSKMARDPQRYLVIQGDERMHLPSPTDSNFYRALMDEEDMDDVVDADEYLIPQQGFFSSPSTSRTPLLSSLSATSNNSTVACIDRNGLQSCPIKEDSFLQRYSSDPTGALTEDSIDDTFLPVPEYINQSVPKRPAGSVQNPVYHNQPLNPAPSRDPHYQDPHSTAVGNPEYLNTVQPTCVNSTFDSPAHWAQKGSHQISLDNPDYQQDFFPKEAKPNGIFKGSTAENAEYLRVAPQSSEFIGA

Row | Structure (SMILES) | IC50 [1] [nM] | IC50 [2] [nM]
1 | COc1c(-c2ccc3c(c2)CCC(=O)N3C)cc(Cl)c2cn(C(C(=O)Nc3nccs3)c3ncn4c3C[C@@H](F)C4)nc12 (mixture of isomers) [Example 20, 2-[4-Chloro-7-methoxy-6-(1-methyl-2-oxo-3,4-dihydroquinolin-6-yl)indazol-2-yl]-2-[rac-(6R)-6-fluoro-6,7-dihydro-5H-pyrrolo[1,2-c]imidazol-1-yl]-N-(1,3-thiazol-2-yl)acetamide] | 1 | –
2 | COc1c(-c2ccc(C3CCN(C4CC4)CC3)cc2)cc(Cl)c2cn(C(C(=O)Nc3nccs3)c3ncn4c3C[C@@H](F)C4)nc12 (mixture of isomers) [Example 22, 2-[4-Chloro-6-[4-(1-cyclopropylpiperidin-4-yl)phenyl]-7-methoxyindazol-2-yl]-2-[rac-(6R)-6-fluoro-6,7-dihydro-5H-pyrrolo[1,2-c]imidazol-1-yl]-N-(1,3-thiazol-2-yl)acetamide] | 5 | –
3 | CC(=O)N1CCN(c2ccc(-c3cc(Cl)c4cn(C(C(=O)Nc5nccs5)c5ncn6c5CCC6)nc4c3)cc2)CC1 (stereo not drawn) [Example 2, 2-(6-(4-(4-Acetylpiperazin-1-yl)phenyl)-4-chloro-2H-indazol-2-yl)-2-(6,7-dihydro-5H-pyrrolo[1,2-c]imidazol-1-yl)-N-(thiazol-2-yl)acetamide] | 0.4 | 5
4 | CC(=O)N1CCN(c2ccc(-c3cc(Cl)c4cn(C(C(=O)Nc5nccs5)c5ncn6c5CCC6)nc4c3Cl)cc2)CC1 (stereo not drawn) [Example 12, 2-(6-(4-(4-Acetylpiperazin-1-yl)phenyl)-4,7-dichloro-2H-indazol-2-yl)-2-(6,7-dihydro-5H-pyrrolo[1,2-c]imidazol-1-yl)-N-(thiazol-2-yl)acetamide] | 1 | –
5 | CCN1CCN(c2ccc(-c3cc(Cl)c4cn(C(C(=O)Nc5nccs5)c5ncn6c5CCC6)nc4c3Cl)cc2)CC1 (stereo not drawn) [Example 13, 2-(4,7-Dichloro-6-(4-(4-ethylpiperazin-1-yl)phenyl)-2H-indazol-2-yl)-2-(6,7-dihydro-5H-pyrrolo[1,2-c]imidazol-1-yl)-N-(thiazol-2-yl)acetamide] | 1 | 11
6 | CCN1CCN(c2ccc(-c3cc(Cl)c4cn(C(C(=O)Nc5nccs5)c5ncn6c5CCC6)nc4c3F)cc2)CC1 (stereo not drawn) [Example 16, 2-(4-Chloro-6-(4-(4-ethylpiperazin-1-yl)phenyl)-7-fluoro-2H-indazol-2-yl)-2-(6,7-dihydro-5H-pyrrolo[1,2-c]imidazol-1-yl)-N-(thiazol-2-yl)acetamide] | 2 | –
7 | CN1C(=O)CCc2cc(-c3cc(Cl)c4cn(C(C(=O)Nc5nccs5)c5ncn6c5CCC6)nc4c3F)ccc21 (stereo not drawn) [Example 18, 2-(4-Chloro-7-fluoro-6-(1-methyl-2-oxo-1,2,3,4-tetrahydroquinolin-6-yl)-2H-indazol-2-yl)-2-(6,7-dihydro-5H-pyrrolo[1,2-c]imidazol-1-yl)-N-(thiazol-2-yl)acetamide] | 1 | –
8 | CC(C)n1ccc(-c2cc(Cl)c3cn(C(C(=O)Nc4nccs4)c4ncn5c4CCC5)nc3c2F)cc1=O (stereo not drawn) [Example 23, 2-(4-Chloro-7-fluoro-6-(1-isopropyl-2-oxo-1,2-dihydropyridin-4-yl)-2H-indazol-2-yl)-2-(6,7-dihydro-5H-pyrrolo[1,2-c]imidazol-1-yl)-N-(thiazol-2-yl)acetamide] | 1 | –

Now from value to molecule:

Row | IC50 [1] [nM] | IC50 [2] [nM] | Structure (SMILES)
9 | 3 | – | CCN1CCN(c2ccc(-c3cc(Cl)c4cn(C(C(=O)Nc5nccs5)c5ncn6c5C[C@@H](F)C6)nc4c3OC)cc2)CC1 (mixture of isomers) [Example 21, 2-[4-Chloro-6-[4-(4-ethylpiperazin-1-yl)phenyl]-7-methoxyindazol-2-yl]-2-[rac-(6R)-6-fluoro-6,7-dihydro-5H-pyrrolo[1,2-c]imidazol-1-yl]-N-(1,3-thiazol-2-yl)acetamide]
10 | 3 | 7 | O=C(Nc1nccs1)C(c1ncn2c1CCC2)n1cc2c(Cl)cc(-c3ccc(N4CCNCC4)cc3)cc2n1 (stereo not drawn) [Example 1, 2-(4-Chloro-6-(4-(piperazin-1-yl)phenyl)-2H-indazol-2-yl)-2-(6,7-dihydro-5H-pyrrolo[1,2-c]imidazol-1-yl)-N-(thiazol-2-yl)acetamide hydrochloride]
11 | 9 | – | O=C(Nc1nccs1)C(c1ncn2c1CCC2)n1cc2c(Cl)cc(-c3ccc(N4CCNCC4)c(Cl)c3)cc2n1 (stereo not drawn) [Example 3, 2-(4-Chloro-6-(3-chloro-4-(piperazin-1-yl)phenyl)-2H-indazol-2-yl)-2-(6,7-dihydro-5H-pyrrolo[1,2-c]imidazol-1-yl)-N-(thiazol-2-yl)acetamide hydrochloride]
12 | 11 | 14 | CCN1CCN(c2ccc(-c3cc(Cl)c4cn(C(C(=O)Nc5nccs5)c5ncn6c5CCC6)nc4c3)cc2Cl)CC1 (stereo not drawn) [Example 4, 2-(4-Chloro-6-(3-chloro-4-(4-ethylpiperazin-1-yl)phenyl)-2H-indazol-2-yl)-2-(6,7-dihydro-5H-pyrrolo[1,2-c]imidazol-1-yl)-N-(thiazol-2-yl)acetamide]
13 | 3 | – | O=C(Nc1nccs1)C(c1ncn2c1C[C@@H](F)C2)n1cc2c(F)cc(-c3ccc(N4CCNCC4)c(Cl)c3)cc2n1 (stereo partly drawn) [Example 6, 2-(6-(3-Chloro-4-(piperazin-1-yl)phenyl)-4-fluoro-2H-indazol-2-yl)-2-((R)-6-fluoro-6,7-dihydro-5H-pyrrolo[1,2-c]imidazol-1-yl)-N-(thiazol-2-yl)acetamide hydrochloride]
14 | 1 | – | CC(=O)N1CCN(c2ccc(-c3cc(F)c4cn(C(C(=O)Nc5nccs5)c5ncn6c5C[C@@H](F)C6)nc4c3)cc2Cl)CC1 (stereo partly drawn) [Example 7, 2-(6-(4-(4-Acetylpiperazin-1-yl)-3-chlorophenyl)-4-fluoro-2H-indazol-2-yl)-2-((R)-6-fluoro-6,7-dihydro-5H-pyrrolo[1,2-c]imidazol-1-yl)-N-(thiazol-2-yl)acetamide]
15 | 5 | – | CCN1CCN(c2ccc(-c3cc(F)c4cn(C(C(=O)Nc5nccs5)c5ncn6c5C[C@@H](F)C6)nc4c3)cc2Cl)CC1 (stereo partly drawn) [Example 8, 2-(6-(3-Chloro-4-(4-ethylpiperazin-1-yl)phenyl)-4-fluoro-2H-indazol-2-yl)-2-((R)-6-fluoro-6,7-dihydro-5H-pyrrolo[1,2-c]imidazol-1-yl)-N-(thiazol-2-yl)acetamide]
16 | 2 | – | O=C(Nc1nccs1)C(c1ncn2c1CCC2)n1cc2c(Cl)cc(-c3ccc(N4CCNCC4)cc3)c(Cl)c2n1 (stereo not drawn) [Example 9, 2-(4,7-Dichloro-6-(4-(piperazin-1-yl)phenyl)-2H-indazol-2-yl)-2-(6,7-dihydro-5H-pyrrolo[1,2-c]imidazol-1-yl)-N-(thiazol-2-yl)acetamide hydrochloride]
17 | 2 | – | O=C(Nc1nccs1)C(c1ncn2c1CCC2)n1cc2c(Cl)cc(-c3ccc(N4CCNCC4)cc3)c(F)c2n1 (stereo not drawn) [Example 15, 2-(4-Chloro-7-fluoro-6-(4-(piperazin-1-yl)phenyl)-2H-indazol-2-yl)-2-(6,7-dihydro-5H-pyrrolo[1,2-c]imidazol-1-yl)-N-(thiazol-2-yl)acetamide hydrochloride]
